Molecular target: T1, SIRT1 (Homo sapiens, UniProt Q96EB6)
T1 sequence (Q96EB6 1-747): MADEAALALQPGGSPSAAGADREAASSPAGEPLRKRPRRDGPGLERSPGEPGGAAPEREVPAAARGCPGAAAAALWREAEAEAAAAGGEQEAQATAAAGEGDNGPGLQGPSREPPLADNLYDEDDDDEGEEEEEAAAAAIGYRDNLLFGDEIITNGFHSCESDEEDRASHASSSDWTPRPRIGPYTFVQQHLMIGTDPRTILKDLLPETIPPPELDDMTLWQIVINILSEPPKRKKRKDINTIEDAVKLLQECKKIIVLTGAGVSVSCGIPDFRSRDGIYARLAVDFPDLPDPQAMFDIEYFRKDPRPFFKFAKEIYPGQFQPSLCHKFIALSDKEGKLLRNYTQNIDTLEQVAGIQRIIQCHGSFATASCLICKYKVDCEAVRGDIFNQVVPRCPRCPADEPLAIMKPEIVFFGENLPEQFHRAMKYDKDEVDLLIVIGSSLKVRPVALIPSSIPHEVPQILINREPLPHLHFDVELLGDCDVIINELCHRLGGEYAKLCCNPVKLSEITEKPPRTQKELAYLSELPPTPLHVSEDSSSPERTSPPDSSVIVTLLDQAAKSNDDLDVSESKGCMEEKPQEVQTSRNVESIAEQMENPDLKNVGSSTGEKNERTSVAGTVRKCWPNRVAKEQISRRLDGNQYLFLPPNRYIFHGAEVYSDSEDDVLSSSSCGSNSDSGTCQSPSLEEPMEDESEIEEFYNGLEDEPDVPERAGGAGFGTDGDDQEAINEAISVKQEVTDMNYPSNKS
Assay: Mass spectrometry based SIRT1 deacetylation (activation) assay
Type: biochemical
Details: 0.5 μM peptide substrate, 120 μM βNAD+, 10 nM SIRT1, 25 min at 25° C.; for Emax: 25 min, read-out: % Fold Act. (percent maximum fold activation)

Row | EC1.5 | Emax | Compound
1 | A (EC1.5≦1 uM) | ≥ 300% | CCN(CCN(C)C)c1cc(C(=O)Nc2ccccc2C(=O)Nc2ccccc2C(N)=O)nc(-c2ccccc2)n1 [Compound 160, N-(2-(2-carbamoylphenylcarbamoyl)phenyl)-6-((2-(dimethylamino)ethyl)(ethyl)amino)-2-phenylpyrimidine-4-carboxamide]
2 | A (EC1.5≦1 uM) | 150 to 300% | NC(=O)c1nnc(-c2ccccc2NC(=O)c2cc(N3CCN4CCC[C@H]4C3)nc(-c3ccccc3)n2)s1 [Compound 69]
3 | A (EC1.5≦1 uM) | ≥ 300% | CN(C)CCNc1cc(C(=O)Nc2ccccc2-c2c[nH]c(-c3ccccc3)n2)nc(-c2ccccc2)n1 [Compound 15]
4 | A (EC1.5≦1 uM) | ≥ 300% | O=C(Nc1ccccc1-c1nnc(N2CCOCC2)s1)c1cc(OC[C@@H](O)CO)nc(-c2ccccc2)n1 [Compound 108]
5 | A (EC1.5≦1 uM) | ≥ 300% | COCCN(CCOC)c1cc(C(=O)Nc2ccccc2C(C)=O)nc(-c2ccccc2)n1 [Compound 141]

Reference: patent US20110039847A1, “AMIDE DERIVATIVES AS SIRTUIN MODULATORS” (Sirtris Pharmaceuticals, Inc, priority 2007, published 2011)
